In ChEMBL document CHEMBL4814056, “Discovery of chalcone analogues as novel NLRP3 inflammasome inhibitors with potent anti-inflammation activities” (Eur J Med Chem, 2021):
Calls of active or inactive are those of the source. The rule behind the calls is not given here.

Key:
[1] = molecular target: T1, NACHT, LRR and PYD domains-containing protein 3 (Mus musculus, UniProt Q8R4B8); experiment: Inhibition of NLRP3 in mouse J774A.1 cells infected with FLA-ST assessed as inhibition of LPS- induced IL-1beta production by ELISA; type: cell-based, J774.A1
[2] = molecular target: T1, NACHT, LRR and PYD domains-containing protein 3; experiment: (§1) Inhibition of NLRP3 inflammasome activation in LPS/nigericin-treated mouse BMDM cells assessed as inhibition of LPS and nigericin-induced IL-1beta production pre-treated for 1 hr measured after 1 hr of stimulation by ELISA; type: cell-based
[3] = Cytotoxicity against human HEK293T cells assessed as reduction in cell viability at 24 hrs by CCK8 assay; type: cell-based, HEK-293T; settings: read-out: TD50
[4] = Selectivity index, ratio of TC50 for cytotoxicity against human HEK293T cells to IC50 for inhibition of NLRP3 in mouse J774A.1 cells
[5] = Stability assessed as glutathione reactivity of compound incubated for 24 hrs; type: physicochemical
[6] = molecular target: NACHT, LRR and PYD domains-containing protein 3 (Mus musculus) (UniProt Q8R4B8); experiment: Inhibition of NLRP3 inflammasome activation in LPS/nigericin-treated mouse J774A.1 cells assessed as effect on pro-caspase-1 pre-treated for 1 hr at 1 to 5 uM measured after 1 hr of stimulation by Western blot analysis; settings: J774.A1, dose 1-5 µM
Mus musculus [7] = experiment: Antiinflammatory activity in po dosed LPS-induced sepsis C57BL/6 mouse model assessed as reduction in IL-1beta secretion in peritonial fluid measured after 6 hrs by ELISA; type: functional, organism-based; settings: dose 25-50 mg/kg
Mus musculus [8] = experiment: Anti-colitis activity against DSS-induced colitis C57BL/6 mouse model assessed as reduction in fecal occult blood treated orally once daily for 14 days started from day 3 post DSS-challenge; type: functional, organism-based; settings: dose 25-50 mg/kg, time 14.0 day
Mus musculus [9] = experiment: Anti-colitis activity against DSS-induced colitis C57BL/6 mouse model assessed as reduction in IL-1 beta in colonic tissue treated orally once daily for 14 days started from day 3 post DSS-challenge by ELISA relative to control; type: functional, organism-based; settings: dose 25-50 mg/kg, time 14.0 day
[10] = molecular target: NACHT, LRR and PYD domains-containing protein 3 (Mus musculus) (UniProt Q8R4B8); experiment: as §1; type: cell-based; settings: dose 1-5 µM, time 2.0 hrs
J774.A1 [11] = experiment: Inhibition of reactive oxygen species generation in LPS/nigericin-induced mouse J774.A1 cells pre-treated for 1 hr at 1 to 5 uM measured after 1 hr of stimulation by DCFH-DA staining-based method relative to control; type: functional, cell-based; settings: dose 1-5 µM, time 2.0 hrs
J774.A1 [12] = experiment: Inhibition of IL-1 beta release in LPS/nigericin-induced mouse J774.A1 cells pre-treated for 1 hr at 1 to 5 uM measured after 1 hr of stimulation by Western blot analysis; type: functional; settings: dose 1-5 µM, time 2.0 hrs
J774.A1 [13] = experiment: Cytotoxicity against mouse J774A.1 cells assessed as reduction in cell viability at 24 hrs by CCK8 assay; type: cell-based; settings: j774.a1, 24 h
J774.A1 [14] = experiment: Inhibition of reactive oxygen species generation in LPS/nigericin-induced mouse J774.A1 cells pre-treated for 1 hr at 1 to 5 uM measured after 1 hr of stimulation by fluorescence microplate-reader relative to control; type: functional, cell-based; settings: dose 1-5 µM, time 2.0 hrs
Mus musculus [15] = experiment: Anti-colitis activity against DSS-induced colitis C57BL/6 mouse model assessed as reduction in colon length treated orally once daily for 14 days started from day 3 post DSS-challenge; type: functional, organism-based; settings: dose 25-50 mg/kg, time 14.0 day
[16] = molecular target: NACHT, LRR and PYD domains-containing protein 3 (Mus musculus) (UniProt Q8R4B8); experiment: Inhibition of NLRP3 inflammasome activation in LPS/nigericin-treated mouse J774A.1 cells assessed as inhibition of LPS and nigericin-induced IL-1beta production pre-treated for 1 hr measured after 1 hr of stimulation by ELISA; settings: J774.A1, dose 1-5 µM, time 2.0 hrs
[17] = molecular target: NACHT, LRR and PYD domains-containing protein 3 (Mus musculus) (UniProt Q8R4B8); experiment: Inhibition of NLRP3 inflammasome activation in LPS/nigericin-treated mouse J774A.1 cells assessed as blockade of IL-1beta secretion pre-treated for 1 hr measured after 1 hr of stimulation by Western blot analysis; settings: J774.A1, dose 1-5 µM, time 2.0 hrs
J774.A1 [18] = experiment: Cytotoxicity against mouse J774A.1 cells assessed as reduction in cell viability at 2 hrs by CellTiter 96 AQueous One solution cell proliferation assay; type: cell-based; settings: j774.a1, 2 h
[19] = molecular target: NACHT, LRR and PYD domains-containing protein 3 (Mus musculus) (UniProt Q8R4B8); experiment: Inhibition of NLRP3 inflammasome activation in LPS/nigericin-treated mouse J774A.1 cells assessed as blockade of caspase 1 p20 maturation pre-treated for 1 hr measured after 1 hr of stimulation by Western blot analysis; settings: J774.A1, dose 1-5 µM, time 2.0 hrs
[20] = molecular target: NLR family CARD domain-containing protein 4 (Mus musculus) (UniProt Q3UP24); experiment: Inhibition of NLRC4 inflammasome activation in LPS-induced mouse […] cells infected with […] pre-treated for 1 hr at 1 to 5 uM measured after 1 hr of stimulation; settings: J774.A1, dose 1-5 µM, time 2.0 hrs
J774.A1 [21] = experiment: Anti-pyroptosis activity against LPS/nigericin-induced mouse […] cells pre-treated for 1 hr at 1 to 5 uM measured after 1 hr of stimulation; type: functional, cell-based; settings: dose 1-5 µM
Mus musculus [22] = experiment: Antiinflammatory activity in po dosed LPS-induced sepsis C57BL/6 mouse model assessed as reduction in IL-1beta secretion in serum measured after 6 hrs by ELISA; type: functional, organism-based; settings: dose 25-50 mg/kg
[23] = molecular target: NACHT, LRR and PYD domains-containing protein 3 (Mus musculus) (UniProt Q8R4B8); experiment: Inhibition of NLRP3 inflammasome activation in LPS/nigericin-treated mouse J774A.1 cells assessed as effect on […] in cell lysate pre-treated for 1 hr at 1 to 5 uM measured after 1 hr of stimulation by Western blot analysis; type: subcellular; settings: J774.A1, dose 1-5 µM, time 2.0 hrs
[24] = molecular target: NACHT, LRR and PYD domains-containing protein 3 (Mus musculus) (UniProt Q8R4B8); experiment: Inhibition of NLRP3 inflammasome activation in LPS/nigericin-treated mouse J774A.1 cells assessed as effect on pro-IL-1-beta pre-treated for 1 hr at 1 to 5 uM measured after 1 hr of stimulation by Western blot analysis; settings: J774.A1, dose 1-5 µM, time 2.0 hrs
[25] = molecular target: T2, Interferon-inducible protein AIM2 (Mus musculus) (UniProt Q91VJ1); experiment: Inhibition of AIM2 inflammasome activation in LPS-induced mouse […] cells infected with […] pre-treated for 1 hr at 1 to 5 uM measured after 1 hr of stimulation; settings: J774.A1, dose 1-5 µM, time 2.0 hrs
T2 sequence (whole entry): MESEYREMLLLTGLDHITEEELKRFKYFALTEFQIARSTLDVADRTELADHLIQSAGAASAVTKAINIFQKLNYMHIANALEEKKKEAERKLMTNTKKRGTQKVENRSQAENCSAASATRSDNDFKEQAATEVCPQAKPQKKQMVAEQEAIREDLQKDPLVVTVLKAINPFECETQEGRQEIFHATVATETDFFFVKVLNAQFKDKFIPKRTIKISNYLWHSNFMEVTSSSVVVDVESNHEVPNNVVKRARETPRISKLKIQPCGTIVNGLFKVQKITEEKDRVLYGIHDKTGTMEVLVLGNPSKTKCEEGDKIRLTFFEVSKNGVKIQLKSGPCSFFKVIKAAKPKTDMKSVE

J774.A1 [26] = experiment: Inhibition of mitochondrial reactive oxygen species generation in LPS/nigericin-induced mouse J774.A1 cells pre-treated for 1 hr at 1 to 5 uM measured after 1 hr of stimulation by MitoSOX Red fluorescence microplate-reader relative to control; type: functional; settings: dose 1-5 µM, time 2.0 hrs
[27] = Solubility of compound; type: physicochemical

T1 sequence (Q8R4B8 whole entry, the tested form may be a part): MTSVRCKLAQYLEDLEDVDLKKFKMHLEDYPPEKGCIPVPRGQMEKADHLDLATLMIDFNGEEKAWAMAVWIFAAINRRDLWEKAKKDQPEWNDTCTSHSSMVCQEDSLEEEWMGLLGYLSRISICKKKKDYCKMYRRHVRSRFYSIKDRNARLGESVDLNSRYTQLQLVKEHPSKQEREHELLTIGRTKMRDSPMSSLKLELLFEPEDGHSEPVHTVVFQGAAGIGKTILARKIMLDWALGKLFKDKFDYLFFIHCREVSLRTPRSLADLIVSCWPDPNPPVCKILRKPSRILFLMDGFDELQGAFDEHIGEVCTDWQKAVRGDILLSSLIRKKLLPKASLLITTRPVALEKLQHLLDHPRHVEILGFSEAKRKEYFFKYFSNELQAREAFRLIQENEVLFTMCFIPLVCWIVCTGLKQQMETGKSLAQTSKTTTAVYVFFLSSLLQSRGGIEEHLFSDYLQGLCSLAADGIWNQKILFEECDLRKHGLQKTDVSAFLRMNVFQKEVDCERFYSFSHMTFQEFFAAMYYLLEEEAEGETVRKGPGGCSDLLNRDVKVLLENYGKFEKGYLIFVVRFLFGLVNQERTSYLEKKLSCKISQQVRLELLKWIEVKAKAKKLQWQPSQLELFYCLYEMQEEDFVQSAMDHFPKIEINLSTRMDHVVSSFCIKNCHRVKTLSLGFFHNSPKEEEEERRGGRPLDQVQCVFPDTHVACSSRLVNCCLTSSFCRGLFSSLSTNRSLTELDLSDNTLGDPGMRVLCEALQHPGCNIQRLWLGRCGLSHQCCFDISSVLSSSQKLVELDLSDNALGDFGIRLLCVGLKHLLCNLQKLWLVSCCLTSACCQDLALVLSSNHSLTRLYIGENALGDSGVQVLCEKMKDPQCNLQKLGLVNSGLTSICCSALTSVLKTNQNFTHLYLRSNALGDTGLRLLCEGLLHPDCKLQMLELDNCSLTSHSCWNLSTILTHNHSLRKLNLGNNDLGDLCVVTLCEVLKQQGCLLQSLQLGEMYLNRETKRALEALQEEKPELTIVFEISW
Chain of NACHT, LRR and PYD domains-containing protein 3 (Mus musculus) (Q8R4B8 whole entry, the tested form may be a part): as above
Chain of NLR family CARD domain-containing protein 4 (Mus musculus) (Q3UP24 whole entry, the tested form may be a part): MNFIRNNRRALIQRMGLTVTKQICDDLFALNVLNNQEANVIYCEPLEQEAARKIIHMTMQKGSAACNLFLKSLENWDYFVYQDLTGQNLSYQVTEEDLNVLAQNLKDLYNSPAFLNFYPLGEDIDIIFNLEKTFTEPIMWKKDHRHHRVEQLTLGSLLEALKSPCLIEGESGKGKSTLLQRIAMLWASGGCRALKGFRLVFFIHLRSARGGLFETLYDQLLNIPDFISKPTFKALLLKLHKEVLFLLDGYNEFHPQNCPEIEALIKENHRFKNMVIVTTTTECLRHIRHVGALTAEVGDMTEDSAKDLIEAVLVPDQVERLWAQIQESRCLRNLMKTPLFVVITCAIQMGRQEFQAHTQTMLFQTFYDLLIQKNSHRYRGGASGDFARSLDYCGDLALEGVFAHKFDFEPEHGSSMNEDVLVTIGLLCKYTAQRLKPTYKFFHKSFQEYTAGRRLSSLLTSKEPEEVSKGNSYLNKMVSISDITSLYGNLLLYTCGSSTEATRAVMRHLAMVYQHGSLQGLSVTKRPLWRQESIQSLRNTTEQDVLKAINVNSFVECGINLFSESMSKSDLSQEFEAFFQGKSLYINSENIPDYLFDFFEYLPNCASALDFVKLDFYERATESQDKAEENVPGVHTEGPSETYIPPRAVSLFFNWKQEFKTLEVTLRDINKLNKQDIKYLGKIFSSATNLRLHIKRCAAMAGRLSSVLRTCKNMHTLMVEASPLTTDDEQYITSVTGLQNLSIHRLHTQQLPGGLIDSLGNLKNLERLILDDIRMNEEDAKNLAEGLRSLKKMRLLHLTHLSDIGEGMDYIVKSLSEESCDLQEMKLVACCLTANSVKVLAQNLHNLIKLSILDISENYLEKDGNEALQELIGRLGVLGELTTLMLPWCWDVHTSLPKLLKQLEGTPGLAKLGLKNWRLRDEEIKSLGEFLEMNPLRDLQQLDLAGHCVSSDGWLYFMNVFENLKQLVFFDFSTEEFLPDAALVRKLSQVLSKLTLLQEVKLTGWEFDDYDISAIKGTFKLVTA

Cc1cc(/C=C/C(=O)c2ccc(F)cc2)cc(C)c1O
IC50 [1]: 12.3 µM

CSc1ccc(C(=O)/C=C/c2c(C)cc(O)cc2C)cc1
IC50 [1]: > 40 µM

CSc1ccc(C(=O)/C=C/c2ccc3c(c2)CCO3)cc1
IC50 [1]: 24.2 µM

CCc1cc(/C=C/C(=O)c2ccc(SC)cc2)cc(CC)c1O
IC50 [1]: 11.7 µM

O=C(O)c1ccc(/C=C2\SC(=S)N(Cc3cccc(C(F)(F)F)c3)C2=O)cc1
IC50 [2]: 1 µM

COc1c(C)cc(/C=C/C(=O)c2ccc(NC(=O)NC(C)C)cc2)cc1C
IC50 [1]: 33.2 µM

CSc1ccc(C(=O)/C=C/c2cc(C)c(OCC(=O)O)c(C)c2)cc1
IC50 [1]: > 40 µM

Cc1ccc(-c2ccc(C(=O)/C=C/c3cc(C)c(O)c(C)c3)cc2)s1
IC50 [1]: > 40 µM

CSc1ccc(C(=O)/C=C/c2ccc(O)cc2)cc1
IC50 [1]: 14.6 µM

Cc1cc(/C=C/C(=O)c2ccc(I)cc2)cc(C)c1O
IC50 [1]: 28.6 µM

CSc1ccc(C(=O)/C=C/c2cc(C)c(O)c(C)c2)cc1
CC50 at 24 h [3]: 86.2 µM
Selectivity Index [4]: 41
IC50 [1]: 2.1 µM
Stabilty [5]: Stable

CCN(CC)C(=S)SSC(=S)N(CC)CC [DISULFIRAM]
IC50 [1]: 3 µM

CCCNC(=O)Oc1c(C)cc(/C=C/C(=O)c2ccc(SC)cc2)cc1C
IC50 [1]: 22.3 µM

COc1cc(/C=C/C(=O)c2ccc(SC)cc2)ccc1O
IC50 [1]: 10 µM

CSc1ccc(C(=O)/C=C/c2cc(C)c(OC(C)(C)C(=O)O)c(C)c2)cc1 [ELAFIBRANOR]
CC50 at 24 h [3]: 142 µM
Selectivity Index [4]: 3.6
IC50 [1]: 39.6 µM

CSc1ccc(C(=O)/C=C/c2ccc(O)c(Cl)c2)cc1
IC50 [1]: 9.7 µM

Cc1cc(/C=C/C(=O)c2ccc(NS(=O)(=O)c3ccc(F)cc3)cc2)cc(C)c1O
IC50 [1]: 5 µM

CSc1ccc(C(=O)/C=C/c2ccc(O)cc2F)cc1
IC50 [1]: 12.7 µM

C=CC(=O)Nc1ccc(C(=O)/C=C/c2cc(C)c(O)c(C)c2)cc1
Activity [6]: inactive
CC50 at 24 h [3]: 156 µM
Activity (Mus musculus [7]): Dose-Dependent Effect
Activity (Mus musculus [8]): Active
Activity (Mus musculus [9]): Active
inhibition [10]: Dose-Dependent Effect
Selectivity Index [4]: 119.7
inhibition (J774.A1 [11]): Active
inhibition (J774.A1 [12]): Active
Activity (J774.A1 [13]): Toxic
inhibition (J774.A1 [14]): Active
Activity (Mus musculus [15]): Active
inhibition [16]: Dose-Dependent Effect
inhibition [17]: inactive
Activity (J774.A1 [18]): Non-Toxic
inhibition [19]: Dose-Dependent Effect
inhibition [20]: inactive
IC50 [1]: 1.3 µM
Activity (J774.A1 [21]): Active
Activity (Mus musculus [22]): Dose-Dependent Effect
inhibition [23]: inactive
inhibition [24]: inactive
inhibition [25]: inactive
inhibition (J774.A1 [26]): Active
Stabilty [5]: Stable

Cc1cc(/C=C/C(=O)c2ccc(-c3cccs3)cc2)cc(C)c1O
IC50 [1]: > 40 µM

Cc1cc(/C=C/C(=O)c2ccc(Cl)cc2)cc(C)c1O
IC50 [1]: 3.9 µM

CSc1ccc(C(=O)/C=C/c2cc(C)c(OCCCCC(=O)O)c(C)c2)cc1
IC50 [1]: 28.9 µM

Cc1cc(/C=C/C(=O)c2ccc([S+](C)[O-])cc2)cc(C)c1O (stereo not drawn)
IC50 [1]: 10.6 µM

CS(=O)(=O)CCC#N [DAPANSUTRILE]
IC50 [1]: 0.1 µM

CSc1ccc(C(=O)/C=C/c2ccc(O)c(F)c2)cc1
IC50 [1]: 10.7 µM

CSc1ccc(C(=O)/C=C/c2cc(C)c(O)cc2C)cc1
IC50 [1]: 5.3 µM

Cc1cc(/C=C/C(=O)c2ccc(NS(=O)(=O)NC(C)C)cc2)cc(C)c1O
IC50 [1]: 3.4 µM

Cc1cc(/C=C/C(=O)c2ccc(S(C)(=O)=O)cc2)cc(C)c1O
IC50 [1]: 12.9 µM

COc1c(C)cc(/C=C/C(=O)c2ccc(N)cc2)cc1C
IC50 [1]: 5.7 µM

COc1cc(/C=C/C(=O)c2ccc(SC)cc2)cc(OC)c1O
IC50 [1]: > 40 µM

COc1c(C)cc(/C=C/C(=O)c2ccc(NC(=O)Nc3ccc(F)cc3)cc2)cc1C
IC50 [1]: 23.5 µM

COc1c(C)cc(/C=C/C(=O)c2ccc(NC(=O)Nc3ccc(C)cc3)cc2)cc1C
IC50 [1]: 38.7 µM

CCCNC(=O)Nc1ccc(C(=O)/C=C/c2cc(C)c(OC)c(C)c2)cc1
IC50 [1]: 9.6 µM

COc1c(C)cc(/C=C/C(=O)c2ccc(SC)cc2)cc1C
IC50 [1]: 49.5 µM

COc1c(C)cc(/C=C/C(=O)c2ccc(N(C)C)cc2)cc1C
IC50 [1]: 25.9 µM

C=C(COc1c(C)cc(/C=C/C(=O)c2ccc(SC)cc2)cc1C)C(=O)O
IC50 [1]: > 40 µM

CSc1ccc(C(=O)/C=C/c2cc(C)c(OCCO)c(C)c2)cc1
IC50 [1]: 12.7 µM

CSc1ccc(C(=O)/C=C/c2ccc(O)c(O)c2)cc1
solubility [27]: Insoluble
IC50 [1]: 1.6 µM

Cc1cc(/C=C/C(=O)c2ccc(-c3ccccc3)cc2)cc(C)c1O
IC50 [1]: 29.4 µM

CCC(Oc1c(C)cc(/C=C/C(=O)c2ccc(SC)cc2)cc1C)C(=O)O (stereo not drawn)
IC50 [1]: 31.7 µM

CSc1ccc(C(=O)/C=C/c2ccc(O)c(C)c2)cc1
IC50 [1]: 8.8 µM

CSc1ccc(C(=O)/C=C/c2ccc(C(=O)O)cc2)cc1
IC50 [1]: 3.5 µM

CSc1ccc(C(=O)/C=C/c2cc(C)c(OCCCN3CCOCC3)c(C)c2)cc1
IC50 [1]: 21.9 µM
